According to patent US20100227313A1, “Methods and Compositions for Determining Altered Susceptibility of HIV-1 to Protease Inhibitor Treatment” (priority 2007, published 2010):

Legend:
[1] = tested on: HIV protease; conditions: 2006, cited from earlier work; for effect of L33F mutation in protease on susceptibility: Kozal et al.; for effect of I47A mutation on susceptibility: de Mendoza et al.
[2] = tested on: HIV-1; assay: Resistance test vector (PHENOSENSE) phenotypic susceptibility assay, fold change in IC50, correlated with genotype (Fisher's Exact test, odds ratio); assay type: cell-based, human immunodeficiency virus type 1; conditions: 2862 clinical samples; FC relative to wild-type (NL4-3); FIG. 1
Text: See Petropoulos et al., 2000, Antimicrob. Agents Chemother. 44:920-928; U.S. Pat. Nos. 5,837,464 and 6,242,187. PHENOSENSE™ is a phenotypic assay that achieves the benefits of phenotypic testing and overcomes the drawbacks of previous assays.
PHENOSENSE™ can obtain results with only one round of viral replication, thereby avoiding selection of subpopulations of virus that can occur during preparation of viral stocks required for assays that rely on fully infectious virus.
A resistance test vector (“RTV”) can then be constructed by incorporating the amplified viral gene sequences into a replication defective viral vector by using any method known in the art of incorporating gene sequences into a vector. In one embodiment, restrictions enzymes and conventional cloning methods are used. See Sambrook et al., 2001, Molecular Cloning: A Laboratory Manual, Cold Spring Harbor Laboratory, 3rd ed., NY; and Ausubel et al., 1989, Current Protocols in Molecular Biology, Greene Publishing Associates and Wiley Interscience, NY. In a preferred embodiment, ApaI and PinAI restriction enzymes are used. Preferably, the replication defective viral vector is the indicator gene viral vector (“IGVV”). In a preferred embodiment, the viral vector contains a means for detecting replication of the RTV. Preferably, the viral vector contains a luciferase expression cassette.
The assay can be performed by first co-transfecting host cells with RTV DNA and a plasmid that expresses the envelope proteins of another retrovirus, for example, amphotropic murine leukemia virus (MLV). Following transfection, viral particles can be harvested from the cell culture and used to infect fresh target cells in the presence of varying amounts of anti-viral drug(s). The completion of a single round of viral replication in the fresh target cells can be detected by the means for detecting replication contained in the vector. In a preferred embodiment, the completion of a single round of viral replication results in the production of luciferase. By monitoring the amount of, e.g., luciferase activity in the presence of the varying amounts of antiviral drug(s), a resistance curve can be constructed by plotting luciferase activity versus drug concentration. The susceptibility of an HIV, or population of HIV, can be determined by measuring the concentration of antiviral drug at which the luciferase activity detected is half-maximal. This number, the IC50, provides a standard and convenient measure of drug resistance.
Patient derived segment(s) corresponding to the HIV protease and reverse transcriptase coding regions were amplified by the reverse transcription polymerase chain reaction method (RT PCR) using viral RNA isolated from viral particles present in the plasma or serum of HIV infected individuals as follows. Viral RNA was isolated from the plasma or serum using oligo-dT magnetic beads (Dynal Biotech, Oslo, Norway), followed by washing and elution of viral RNA. The RT PCR protocol was divided into two steps. A retroviral reverse transcriptase (e.g. Moloney MuLV reverse transcriptase (Roche Molecular Systems, Inc., Branchburg, N.J.; Invitrogen, Carlsbad, Calif.), or avian myeloblastosis virus (AMV) reverse transcriptase, (Boehringer Mannheim, Indianapolis, Ind.) was used to copy viral RNA into cDNA. The cDNA was then amplified using a thermostable DNA polymerase (e.g. Taq (Roche Molecular Systems, Inc., Branchburg, N.J.), Tth (Roche Molecular Systems, Inc., Branchburg, N.J.), PRIMEZYME™ (isolated from Thermus brockianus, Biometra, Gottingen, Germany)) or a combination of thermostable polymerases as described for the performance of “long PCR” (Barnes, W.M., 1994, Proc. Natl. Acad. Sci, USA 91, 2216 20) (e.g. Expand High Fidelity PCR System (Taq+Pwo), (Boehringer Mannheim. Indianapolis, Ind.); GENEAMP XL™ PCR kit (Tth+Vent), (Roche Molecular Systems, Inc., Branchburg, N.J.); or […] II®, Clontech, Palo Alto, Calif.)

Row | SMILES | effect of L33F mutation in protease on susceptibility [1] | effect of I47A mutation on susceptibility [1] | correlation of FC in susceptibility with the FC in susceptibility for DRV [2]
1 | CC(C)c1nc(CN(C)C(=O)N[C@H](C(=O)N[C@@H](Cc2ccccc2)C[C@H](O)[C@H](Cc2ccccc2)NC(=O)OCc2cncs2)C(C)C)cs1 [ritonavir] | correlate with resistance |  | 
2 | CC(C)(C)NC(=O)[C@@H]1C[C@@H]2CCCC[C@@H]2CN1C[C@@H](O)[C@H](Cc1ccccc1)NC(=O)[C@H](CC(N)=O)NC(=O)c1ccc2ccccc2n1 [saquinavir] | correlate with resistance | hypersusceptibility | 
3 | COC(=O)N[C@H](C(=O)N[C@@H](Cc1ccccc1)[C@@H](O)CN(Cc1ccc(-c2ccccn2)cc1)NC(=O)[C@@H](NC(=O)OC)C(C)(C)C)C(C)(C)C [ATV, atazanavir] |  |  | no correlation
4 | Cc1cccc(C)c1OCC(=O)N[C@@H](Cc1ccccc1)[C@@H](O)C[C@H](Cc1ccccc1)NC(=O)[C@H](C(C)C)N1CCCNC1=O [LPV, lopinavir] | correlate with resistance | reduced susceptibility | no correlation
